Assay results published in patent US7402691B2, “Malononitrile compounds and their use as pesticides” (Sumitomo Chemical Company, Limited, priority 2001, dated 2008).

Assays:
Assay type in all cases: in vivo
Ctenocephalides felis = assay: Pesticidal test against Ctenocephalides felis, treated filter paper (Test Example 9); details: 200 mg/m^2 on filter paper (acetone solution), twenty adults, after 24 hours
Method: Each of the compound 8, 15, 19, 21 and 34 was dissolved in acetone to give a 0.2 ml solution of 0.114% w/w, which was uniformly treated on a filter paper having 3.8cm in diameter, and air-dried. The amount of active ingredient was 200 mg/m^2. The filter paper was filled in a lid of a 200 ml glass bottle. Twenty adult Ctenocephalides felis (cat flea) were released in the glass bottle, which was followed by covering with the lid. The glass bottle was upset for making the fleas contact with the filter paper. After 24 hours, the mortality was examined.

Musca domestica = assay: Pesticidal test against Musca domestica, filter paper with sucrose bait (Test Example 6); details: 500 ppm, 0.7 ml on filter paper, ten female adults, after 24 hours, read-out: mortality
Method: Ten female adults of Musca domestics (house fly) were set free in the polyethylene cup, which was then kept covered. After 24 hours, their survival was examined to determine the mortality.

[1] = tested on: Leptinotarsa decemlineata; assay: Pesticidal test against Leptinotarsa decemlineata, eggplant leaf dip (Test Example 5); details: foliar, 120 h, eggplant leaf immersed 1 minute, second-instar larvae, 5th day after release, read-out: rate of dead or moribund pests
Method: A leaf of eggplant was immersed in the test liquid, which had been prepared as described above, for 1 minute. After the test liquid treated the leaf of eggplant was dried with a paper towel, the leaf of eggplant was placed in a polyethylene cup of 3 cm in diameter. One second-instar larvae of Leptinotarsa decemlineata (Colorado potato beetle) were set free in the polyethylene cup, which was then kept covered and left in a greenhouse at 25° C. This test was done ten times for one compound. On the 5th day after the release of Leptinotarsa decemlineata, the number of dead pests and moribund pests was examined.

Eysarcoris lewisi = assay: Pesticidal test against Eysarcoris lewisi, treated peanut seeds (Test Example 4); details: 168 h, peanut seeds immersed 1 minute, adults, 7th day after release, read-out: rate of dead or moribund pests
Method: Then, 3 to 5 seeds of peanut were immersed in the test liquid, which had been prepared as described above, for 1 minute. After the test liquid treated the seeds of peanut was dried with a paper towel, a filter paper moistened with 1 ml of water was placed on a bottom of polyethylene cup and then the seeds of peanut was placed on it. Six to eight adults of Eysarcoris lewisi were set free in the polyethylene cup, which was then kept covered and left in a greenhouse at 25° C. On the 7th day after the release of Eysarcoris lewisi, the number of dead pests and moribund pests was examined.

SMILES	mortality at 200 mg/m2 (Ctenocephalides felis) [%]	mortality at 500 ppm (Musca domestica) [%]	pest or weed control at 1.6 ppm [1] [%]	pest or weed control at 100 ppm (Eysarcoris lewisi) [%]
N#CC(C#N)(CCC(F)(F)C(F)(F)F)Cc1ccc(C(F)(F)F)cc1 [Compound 8, 2-(3,3,4,4,4-pentafluorobutyl)-2-(4-(trifluoromethyl)benzyl)malononitrile]	100	100	> 80	100
N#CC(C#N)(CCC(F)(F)F)Cc1ccc(Cl)cc1 [Compound 15, 2-(4-chlorobenzyl)-2-(3,3,3-trifluoropropyl)malononitrile]	100	100	> 80	
N#CC(C#N)(CCC(F)(F)F)Cc1ccc(Cl)c(Cl)c1 [Compound 21, 2-(3,4-dichlorobenzyl)-2-(3,3,3-trifluoropropyl)malononitrile]	100	100	> 80	100
CSc1ccc(CC(C#N)(C#N)CCC(F)(F)F)cc1 [Compound 34, 2-(4-(methylthio)benzyl)-2-(3,3,3-trifluoropropyl)malononitrile]	100	100		
